In patent publication US20040102423A1, “Spironolactone and angiotensin II antagonist combination therapy for treatment of congestive heart failure” (G.D. Searle & Co., priority 1995, published 2004):

target: angiotensin II AT1 receptor; experiment: Assay A: Angiotensin II binding activity, rat uterine membrane preparation, 125I-AII displacement
Method: Assay A: Antiotensin II Binding Activity
Compounds of the invention were tested for ability to bind to the smooth muscle angiotensin II receptor using a rat uterine membrane preparation. […] Rat uterine membranes were prepared from fresh tissue. All procedures were carried out at 4° C. Uteri were stripped of fat and homogenized in phosphate-buffered saline at pH 7.4 containing 5 mM EDTA. The homogenate was centrifuged at 1500×g for 20 min., and the supernatant was recentrifuged at 100,000×g for 60 min. The pellet was resuspended in buffer consisting of 2 mM EDTA and 50 mM Tris-HCl (pH 7.5) to a final protein concentration of 4 mg/ml. […] The reaction was initiated by the addition of membrane protein and the mixture was incubated at 25° C. for 60 min. The incubation was terminated with ice-cold 50 mM Tris-HCl (pH 7.5) and the mixture was filtered to separate membrane-bound labelled peptide from the free ligand. The incubation tube and filter were washed with ice-cold buffer. Filters were assayed for radioactivity in a Micromedic gamma counter. Nonspecific binding was defined as binding in the presence of 10 μM of unlabelled AII. Specific binding was calculated as total binding minus nonspecific binding. […] Binding data were analyzed by a nonlinear least-squares curve fitting program.

| IC50 [nM] | Structure (SMILES) |
| --- | --- |
| 390 | CCCCn1nc(C(=O)NC)nc1Cc1ccc(-c2ccccc2-c2nnn[nH]2)nc1 [Compound 183] |
| 2 | CCCCn1nc(CCc2ccccc2)nc1Cc1ccc(-c2ccccc2-c2nnn[nH]2)cc1 [Compound 142] |
| 570 | CCCCc1nc(CCC(C)C)nn1Cc1ccc(-c2ccccc2-c2nnn[nH]2)cc1 [Compound 28] |
| 44 | CCCCc1nc(CF)nn1Cc1ccc(-c2ccccc2-c2nnn[nH]2)cc1 [Compound 70] |
| 31 | CCCCc1cn(CCCC)c(=O)n1Cc1ccc(-c2ccccc2-c2nnn[nH]2)nc1 [Compound 196] |
| 50 | CCCCc1nc2c(OCC)nnc(OCC)c2n1Cc1ccc(-c2ccccc2-c2nnn[nH]2)cc1 [Compound 123] |
| 10 | CCCCc1nc(CN)nn1Cc1ccc(-c2ccccc2-c2nnn[nH]2)cc1 [Compound 38] |
| 2200 | CCCCc1nc(C=O)nn1Cc1ccc(-c2ccccc2-c2nnn[nH]2)cc1 [Compound 60] |
| 90 | CCCn1nc(C(F)F)nc1Cc1ccc(-c2ccccc2-c2nnn[nH]2)nc1 [Compound 173] |
| 54 | CCCCc1nc(C(F)(F)CCC)n(Cc2ccc(-c3ccccc3-c3nnn[nH]3)nc2)n1 [Compound 259] |
| 21 | CCCCc1nc(-c2ccccc2)nn1Cc1ccc(-c2ccccc2-c2nnn[nH]2)nc1 [Compound 270] |
| 480 | CCCCc1nn(CC(=O)c2ccccc2)c(=O)n1Cc1ccc(-c2ccccc2-c2nn[nH]n2)cc1 [Compound 93] |
| 14 | CCCc1cn(CCC)c(=O)n1Cc1ccc(-c2ccccc2-c2nnn[nH]2)nc1 [Compound 197] |
| 65 | CCCCc1cn(CCC(C)(C)C)c(=O)n1Cc1ccc(-c2ccccc2-c2nnn[nH]2)nc1 [Compound 214] |
| 290 | CCCCc1nc(C(=O)N(C)C(C)(C)C)nn1Cc1ccc(-c2ccccc2-c2nnn[nH]2)nc1 [Compound 266] |
| 83 | CCCCCCCCc1nc(CCCC)n(Cc2ccc(-c3ccccc3-c3nnn[nH]3)cc2)n1 [Compound 40] |
| 2.6 | CCCCc1nc(CCCC)n(Cc2ccc(-c3cccnc3-c3nnn[nH]3)cc2)n1 [Compound 253] |
| 420 | CCCCn1nc(CCC)nc1Cc1ccc(-c2ccccc2-c2nnn[nH]2)nc1 [Compound 163] |
| 380 | CCCCn1nc(CCc2ccccc2)nc1Cc1ccc(-c2ccccc2-c2nnn[nH]2)nc1 [Compound 162] |
| 12 | CCCCc1nc(C23CC4CC(CC(C4)C2)C3)n(Cc2ccc(-c3ccccc3-c3nnn[nH]3)cc2)n1 [Compound 66] |
| 220 | CCCCc1nc(CC(C)(C)C)nn1Cc1ccc(-c2ccccc2-c2nnn[nH]2)nc1 [Compound 260] |
| 87 | CCCCc1nc(C(F)(F)CCC)nn1Cc1ccc(-c2ccccc2-c2nnn[nH]2)cc1 [Compound 21] |
| 3.6 | CCCCc1cn(CCCC)c(=O)n1Cc1ccc(-c2ccncc2-c2nnn[nH]2)cc1 [Compound 237] |
| 91 | CCCCc1cn(C2C3CC4CC(C3)CC2C4)c(=O)n1Cc1ccc(-c2ccccc2-c2nnn[nH]2)nc1 (centres unmarked) [Compound 224] |
| 110 | CCCCc1cn(-c2c(C)cccc2Cl)c(=O)n1Cc1ccc(-c2ccccc2-c2nnn[nH]2)nc1 [Compound 242] |

| IC50 [nM] | Structure (SMILES) |
| --- | --- |
| 98 | CCCCc1cn(-c2c(CC)cccc2CC)c(=O)n1Cc1ccc(-c2ccccc2-c2nnn[nH]2)nc1 [Compound 245] |
| 120 | CCCCc1cn(-c2ccccc2C(C)(C)C)c(=O)n1Cc1ccc(-c2ccccc2-c2nnn[nH]2)nc1 [Compound 240] |
| 9 | CCCCc1cn(C2CCCC2)c(=O)n1Cc1ccc(-c2ccccc2-c2nnn[nH]2)nc1 [Compound 218] |
| 1700 | CCCCn1nc(CCc2cccs2)nc1Cc1ccc(-c2ccccc2-c2nnn[nH]2)nc1 [Compound 164] |
| 110 | CCCCc1nc(C(=O)Cc2ccccc2)nn1Cc1ccc(-c2ccccc2-c2nnn[nH]2)cc1 [Compound 61] |
| 5 | CCCCc1cn(CCC2CCCC2)c(=O)n1Cc1ccc(-c2ccccc2-c2nnn[nH]2)nc1 [Compound 222] |
| 120 | CCCCc1nc(C(F)F)n(Cc2ccc(-c3ccccc3-c3nnn[nH]3)cc2)n1 [Compound 59] |
| 34 | CCCCc1nc(Cc2ccc(-c3ccccc3-c3nnn[nH]3)nc2)n(CC(C)(C)C)n1 [Compound 195] |
| 5 | CCCCc1nc(CCCO)nn1Cc1ccc(-c2ccccc2-c2nnn[nH]2)cc1 [Compound 56] |
| 5800 | CCCCc1nn(CC(O)c2ccccc2)c(=O)n1Cc1ccc(-c2ccccc2-c2nn[nH]n2)cc1 (centres unmarked) [Compound 94] |
| 8.6 | CCCCc1nc(CCCC2CCCCC2)n(Cc2ccc(-c3ccccc3-c3nnn[nH]3)cc2)n1 [Compound 68] |
| 51 | CCCCc1cn(CC(C)(C)C)c(=O)n1Cc1ccc(-c2ccccc2-c2nnn[nH]2)nc1 [Compound 213] |
| 570 | CCCCc1nc(CCC(=O)O)n(Cc2ccc(-c3ccccc3-c3nnn[nH]3)cc2)n1 [Compound 75] |
| 16 | CCCCc1nc(C)n(Cc2ccc(-c3ccccc3-c3nnn[nH]3)cc2)n1 [Compound 44] |
| 57 | CCCCc1nc(CC(CC)CC)n(Cc2ccc(-c3ccccc3-c3nnn[nH]3)nc2)n1 [Compound 263] |
| 29 | CCCCn1nc(C(OC(C)C)OC(C)C)nc1Cc1ccc(-c2ccccc2-c2nnn[nH]2)nc1 [Compound 189] |
| 630 | CCCCc1nc(-c2ccccc2)n(Cc2ccc(-c3ccccc3-c3nnn[nH]3)cc2)n1 [Compound 33] |
| 640 | CCCCc1nc(C(OC)OC)n(Cc2ccc(-c3ccccc3-c3nnn[nH]3)cc2)n1 [Compound 34] |
| 3700 | CCCCc1nc(C(=O)CCC)nn1Cc1ccc(-c2ccccc2-c2nnn[nH]2)cc1 [Compound 41] |
| 15 | CCCCc1nc(CCCC2CCCCC2)nn1Cc1ccc(-c2ccccc2-c2nnn[nH]2)cc1 [Compound 69] |
| 16 | CCCCc1nc(-c2ccccc2)nn1Cc1ccc(-c2ccccc2-c2nnn[nH]2)cc1 [Compound 32] |
| 18 | CCCCc1nc(CC(C)(C)C)n(Cc2ccc(-c3ccccc3-c3nnn[nH]3)nc2)n1 [Compound 261] |
| 99 | CCCCc1cn(CCC)c(=O)n1Cc1ccc(-c2ccccc2-c2nnn[nH]2)nc1 [Compound 207] |
| 13 | CCCCc1nc(CCCC)n(Cc2ccc(-c3ccccc3-c3nnn[nH]3)nc2)n1 [Compound 252] |
| 770 | CCCCn1nc(C(OCC)OCC)nc1Cc1ccc(-c2ccccc2-c2nnn[nH]2)nc1 [Compound 187] |

| IC50 [nM] | Structure (SMILES) |
| --- | --- |
| 180 | CCCCc1nc(CCC(C)C)n(Cc2ccc(-c3ccccc3-c3nnn[nH]3)cc2)n1 [Compound 27] |
| 11 | CCCCc1nc(CCc2ccccc2)nn1Cc1ccc(-c2ccccc2-c2nnn[nH]2)nc1 [Compound 264] |
| 19 | CCCCc1nc(C)nn1Cc1ccc(-c2ccccc2-c2nnn[nH]2)cc1 [Compound 43] |
| 93 | CCCCc1cn(-c2ccccc2)c(=O)n1Cc1ccc(-c2ccccc2-c2nnn[nH]2)nc1 [Compound 226] |
| 160 | CCCCc1cn(C23CC4CC(CC(C4)C2)C3)c(=O)n1Cc1ccc(-c2ccccc2-c2nnn[nH]2)nc1 [Compound 225] |
| 110 | CCCCc1nc(CCc2ccccc2)n(Cc2ccc(-c3ccccc3-c3nnn[nH]3)nc2)n1 [Compound 265] |
| 14 | CCCCc1cn(CC2CCCC2)c(=O)n1Cc1ccc(-c2ccccc2-c2nnn[nH]2)nc1 [Compound 219] |
| 46 | CCCCc1nc2c(Cl)nnc(Cl)c2n1Cc1ccc(-c2ccccc2-c2nnn[nH]2)cc1 [Compound 121] |
| 370 | CCCCc1nc(C(=O)CCC)nn1Cc1ccc(-c2ccccc2-c2nnn[nH]2)cc1 [Compound 42] |
| 140 | CCCCn1nc(C2OCC(C)(C)CO2)nc1Cc1ccc(-c2ccccc2-c2nnn[nH]2)nc1 [Compound 192] |
| 28 | CCCCc1nc(Cc2ccc(-c3ccccc3-c3nnn[nH]3)nc2)n(CCCC)n1 [Compound 161] |
| 45 | CCCCc1cn(CC(CC)CC)c(=O)n1Cc1ccc(-c2ccccc2-c2nnn[nH]2)nc1 [Compound 215] |
| 25 | CCCCc1nc(CCCC)n(Cc2ccc(-c3ccccc3C(=O)O)nc2)n1 [Compound 251] |
| 250 | CCCCc1cn(-c2c(C)cc(C)cc2C)c(=O)n1Cc1ccc(-c2ccccc2-c2nnn[nH]2)nc1 [Compound 243] |
| 160 | CCCCc1ncnn1Cc1ccc(-c2ccccc2C(=O)O)cc1 [Compound 29] |
| 46 | CCCCc1nc2c(O)nnc(O)c2n1Cc1ccc(-c2ccccc2-c2nnn[nH]2)cc1 [Compound 122] |
| 59 | CCCCn1nc(C(=O)N(C)C(C)(C)C)nc1Cc1ccc(-c2ccccc2-c2nnn[nH]2)nc1 [Compound 182] |
| 430 | CCCc1nc(CCC)n(Cc2ccc(-c3ccccc3-c3nnn[nH]3)cc2)n1 [Compound 23] |
| 80 | CCCCc1nc(Cc2ccccc2)nn1Cc1ccc(-c2ccccc2-c2nnn[nH]2)cc1 [Compound 55] |
| 9.7 | CCCCc1nc(C(=O)NC)n(Cc2ccc(-c3ccccc3-c3nnn[nH]3)nc2)n1 [Compound 269] |
| 680 | CCCCc1nc(CC(OCC)OCC)n(Cc2ccc(-c3ccccc3-c3nnn[nH]3)cc2)n1 [Compound 48] |
| 72 | CCCCc1nc(CCCC)n(Cc2ccc(-c3ccncc3-c3nnn[nH]3)cc2)n1 [Compound 254] |
| 140 | CCCCn1nc(C(OCCC)OCCC)nc1Cc1ccc(-c2ccccc2-c2nnn[nH]2)nc1 [Compound 188] |

| Structure (SMILES) | IC50 [nM] |
| --- | --- |
| C[C@]12CCC(=O)C=C1C1CC1[C@H]1[C@@H]3CC[C@@](O)(CCC(=O)O)[C@@]3(C)CC3O[C@]312 (some centres unmarked) [Compound 8] | 17000 |
